The structures appear in SMILES notation.

This experiment concerns Plasmodium falciparum. Put plainly: GSK_TCMDC: Inhibition of Plasmodium falciparum 3D7 in whole erythrocytes, using parasite LDH activity as an index of growth. It is filed as functional, organism-based. Conditions: Plasmodium falciparum, 3D7.
The compound `Nc1nc(N)c2c(Oc3cccc(Cl)c3)cccc2n1` yielded an XC50 of 471 nM.
Then `Cc1cnccc1/C=C/c1cccc(OCCCN2CCc3ccc(S(C)(=O)=O)cc3CC2)c1`, with 615 nM; and `Cc1ccc(NC(=O)Nc2cccc(Cl)c2)cc1-c1ccc(C(=O)Nc2ccncc2)cc1`, with 738 nM; and `CC(C)COc1ccc(Cl)cc1Cc1ccc(-c2nc3ccc(F)c(F)c3[nH]2)o1`, with 942 nM.
The compound `c1ccc(Oc2ccc(Nc3ccnc4ccc(-c5ccco5)cc34)cc2)cc1` showed an XC50 of 928 nM.
With `COc1ccc(N2CCN(CCCCNC(=O)c3ccc(NC(=O)c4cc(C(F)(F)F)cc(C(F)(F)F)c4)cc3)CC2)cc1OC` the figure was 221 nM; with `N=C1c2ccccc2CN1CC(=O)c1ccc(Cl)c(Cl)c1`, 728 nM.
With `COc1ccc(Cl)cc1N1CCN(CCCNC(=O)c2ccc(-c3nc4cc(Cl)c(F)cc4[nH]3)s2)CC1` the figure was 314 nM.
In the case of `Cc1cccc(-c2ccc3c(c2)CC(NCc2cccc(-n4ccnc4)c2)C3)c1` (configuration not stated), the XC50 worked out at 874 nM.
Then `CN(C)CCOc1cc(NC(=O)Nc2ccc3c(c2)CCCC3=O)ccc1I`, with 939 nM; and `CN1CCN(C(C(=O)NCc2cc(Cl)cc(Cl)c2)c2ccc(Nc3cccc(C(F)(F)F)c3)cc2)CC1` (configuration not stated), with 1120 nM; and `COc1ccc2nccc([C@@H](O)CN3CCC(NC(=O)c4ccc(CN5CCN(c6cccc(C)c6)CC5C)cc4)CC3)c2c1` (some centres not stated), with 211 nM.
In turn, `Cc1nc(C)c(-c2ccc(Oc3ccc(Cl)cc3)c(Cl)c2)c(O)c1Br` came in with an XC50 of 495 nM.
With `CCc1ccccc1N=C1c2c(cccc2[N+](=O)[O-])C(=O)C1C(C)=O` (configuration not stated) the figure was 90.9 nM; with `COc1ccc(Nc2nccc(-c3cccc(NC(=O)c4cc5cc(F)ccc5[nH]4)c3)n2)cc1`, 1030 nM.
The compound `COc1ccc(NC(=O)[C@H](CC(C)C)Nc2cc(C)nc(NCCc3ccccc3)n2)cc1` returned an XC50 of 888 nM.
With `Cc1nc(-c2nc(NCc3ccncc3)ncc2-c2ccsc2)sc1C` the figure was 989 nM.
Then `CCCc1cc(OC)c(CC2c3cc(O)c(Cl)cc3C(c3ccccc3)CN2C)cc1OC` (configuration not stated), with 430 nM; and `Cc1cc(CN2CCC(N3CC(c4ccccc4)(c4ccccc4)OCC3=O)C2)ccc1O` (configuration not stated), with 1080 nM; and `CC[C@H](C)[C@@H](C(=O)N1CCOCC1)N1CC[C@H](NS(=O)(=O)CC(C)(C)c2ccc(Cl)cc2)C1=O`, with 550 nM.
`Cc1cc(C)cc(OCC(O)CN(Cc2cc(Cl)cc(Cl)c2)C(=O)Nc2ccc([N+](=O)[O-])cc2)c1` (configuration not stated) yielded an XC50 of 804 nM.
With `COc1ccc2nccc([C@@H](O)CN3CCC(NCc4cc5cc(C)ccc5s4)CC3)c2c1` the figure was 636 nM; with `CN1CCN(C(=O)CN2CCC3(CCC2=O)NC(=O)c2ccccc2O3)CC1` (configuration not stated), 213 nM.
Then `CCCCCn1c(Sc2ccc(C#N)c([N+](=O)[O-])c2)nnc1-c1ccccc1`, with 860 nM.
Then `COc1ccccc1CCNc1nc(C)cc(N[C@@H](CC(C)C)C(=O)NCCc2ccccc2)n1`, with 718 nM.
As to `O=S(=O)(NC1CCN(c2ccnc3cc(Cl)ccc23)C1)c1ccc(C(F)(F)F)cc1` (configuration not stated), the XC50 was 298 nM.
The compound `Cc1nc(N)nc(N)c1OCc1ccc(Cl)c(Cl)c1` had an XC50 of 131 nM.
Then `CC(C)(C)NC(=O)COC(=O)c1c2c(nc3ccccc13)C(=Cc1ccc3c(c1)OCO3)CCC2`, with 735 nM; and `Cc1nc2c(Nc3nc(-c4ccncc4)cs3)ncnc2n1-c1ccccc1Cl`, with 176 nM; and `COc1cccc(-c2nc3c(N4CCN(c5ccncc5)CC4)cccc3n2CC2CCCCCN2)n1` (configuration not stated), with 1060 nM.
On to `COc1ccc(CN2CCC(CNCc3cccc(-c4ccccc4)c3)CC2)cc1`, for which the XC50 was found to be 236 nM.
In turn, `COC(=O)c1ccc(Nc2nccc(Nc3ccc(Oc4ccccc4)cc3)n2)cc1` showed an XC50 of 1020 nM.
Then `CCOc1ccc(-c2n[nH]c(C(F)(F)F)c2-c2ccccc2OC)c(O)c1`, with 1140 nM.
Then `CCCNC[C@@H](O)[C@H](Cc1ccccc1)NC(=O)c1cc(NCC)cc(N2CCCC2=O)c1`, with 760 nM; and `Cc1cc(NCC(C)C)c2[nH]nc(-c3ccccc3)c2n1`, with 744 nM; and `Cn1cncc1C(=O)Nc1cccc(-c2ccc(-c3nc4ccccc4[nH]3)cc2)c1`, with 854 nM.
Then `Cc1cccc2nc(-c3cccc(-c4ccc(NC(=O)c5ccc(=O)[nH]n5)cc4)c3)[nH]c12`, with 857 nM; and `O=C(Nc1cccc(F)c1)N1CCC(CN2CCOC(c3ccccc3)(c3ccccc3)C2)CC1`, with 198 nM; and `Cc1cccc2nc(-c3cccc(-c4ccc(CNCc5cccc(N)c5)cc4)c3)[nH]c12`, with 260 nM.
With `N#Cc1ccc(-c2ccc(C(=O)NCCCCN3CCC(c4cc(Br)c5c(c4O)CCCC5)CC3)cc2)cc1`, the XC50 was 154 nM.
With `Cc1c[nH]c2cc(/C=C/C(=O)NC3CCC(CCN4CCc5ccc(C#N)cc5CC4)CC3)ccc12` (configuration not stated) the figure was 801 nM; with `O=C(NC1CCN(Cc2ccccc2)CC1)c1ccc(CNC2CCN(Cc3ccccc3)CC2)cc1`, 872 nM.
With `CCOc1ccc(C2CCN(CCCCNC(=O)c3ccc(NC(=O)c4ccc(Cl)cc4)cc3)CC2)c(Cl)c1` the figure was 731 nM; with `O=C(c1cccc(-c2cccc(-c3nc4cc(F)ccc4[nH]3)c2)c1)N1CCCCC1CN1CCC(O)C1` (configuration not stated), 882 nM; with `Nc1nccc2ccc(-c3ccc4ncccc4c3)cc12`, 112 nM.
With `CCNC(=O)N1CCc2ccc(Oc3nc(NCc4ccccc4OC)ncc3C)cc2CC1` the figure was 1070 nM; with `COc1cc(NC(=O)/C=C/c2cc(F)cc(F)c2F)cc(OCCN2CCN(CCN3CCOCC3)CC2)c1`, 771 nM; with `Cn1ncc2ccc(Nc3nccc(-c4ccc5c(c4)c(N)nn5C)n3)cc21`, 648 nM.
Turning to `COc1ccc2nccc([C@@H](O)CN3CCC(NC(=O)Cn4nc(-c5ccc(C(F)(F)F)cc5)ccc4=O)CC3)c2c1`, the XC50 was found to be 737 nM.
With `Cn1c(=O)c2nc(-c3ccc(Cl)cc3)nnc2n(CCCC#N)c1=O` the figure was 153 nM.
With `OC1(Cc2ccccc2)CCN(Cc2cccc(-c3c[nH]c4nc(NC5CCCC5)ncc34)c2)CC1`, the XC50 worked out at 929 nM.
In the case of `COc1cccc(-c2cccc(NC(=O)C3CCN(Cc4ccc(O)cc4)CC3)c2)c1`, the XC50 was found to be 1030 nM.
Then `Cc1cccc2nc(-c3cccc(-c4cccc(CNCCc5cccn5C)c4)c3)[nH]c12`, with 733 nM; and `Oc1ccc(CCNc2nc(NCCOc3ccccc3-c3ccccc3)nc(N3CCNCC3)n2)cc1`, with 1040 nM.
With `CC(=O)N1N=C(c2[nH]c3ccc(Br)cc3c2C)OC1c1ccccc1` (configuration not stated) the figure was 777 nM; with `COc1ccc2ncc(Cl)c(CCN3CCC(NCc4ccc5c(n4)NC(=O)CO5)CC3)c2c1`, 470 nM.
As for `COc1ccc2nccc([C@@H](O)CN3CCC(NCC(O)Cc4ccccc4)CC3)c2c1` (some centres not stated), the XC50 was 671 nM.
The compound `CCOc1ncccc1CN1CCC(N2CCc3cc(NC(=O)c4ccco4)ccc32)C1` (configuration not stated) showed an XC50 of 758 nM.
With `CN(C)C(CNC(=O)c1cc(-c2ccncc2)c(-c2ccc(NC(=O)Nc3cccc(Cl)c3)cc2)o1)c1ccccc1` (configuration not stated) the figure was 183 nM; with `Cc1cc(C)cc(-n2c(C)cc(/C=C3\SC(=Nc4ccc(Cl)cc4)NC3=O)c2C)c1`, 65.8 nM.
`Cc1cc(N(C)C)nc(Nc2ccc(NC(=O)c3c(F)cccc3Cl)cc2)n1` gave an XC50 of 1090 nM.
Then `COc1cc(CCN(C)Cc2ccc(OC)c(OC)c2)ccc1NC(=O)c1cccc2c(O)c3cccc(F)c3nc12`, with 203 nM.

Values taken from ChEMBL document CHEMBL1157539, “Thousands of chemical starting points for antimalarial lead identification” (Nature, 2010).
